The values that follow come from ChEMBL document CHEMBL4390649, “Fine-tuning the neuroprotective and blood-brain barrier permeability profile of multi-target agents designed to prevent progressive mitochondrial dysfunction” (Eur J Med Chem, 2019).

Each structure is given as a SMILES string. pIC50: −log10 of the molar value. Activity calls are given as the source filed them. No cut-off for these calls is given here.

One may read the pIC50 as the negative decadic logarithm of the IC50, by convention in mol/L.

The first data set deals with SH-SY5Y. As to the kind of experiment: Neuroprotective activity against H2O2-induced oxidative damage in human SH-SY5Y cells assessed as reduction in cell damage at 50 uM pretreated for 24 hrs followed by H2O2 challenge measured after 30 mins by MTT assay relative to control. The class given is functional.
Conditions: not given
Consider `CS(=O)(=O)[O-].O=C(CCc1ccc(O)c(O)c1)NCCCCCC[P+](c1ccccc1)(c1ccccc1)c1ccccc1`, for which the result was Active.

For `CS(=O)(=O)[O-].O=C(Cc1ccc(O)c(O)c1)NCCCCCC[P+](c1ccccc1)(c1ccccc1)c1ccccc1`, the outcome was inactive.

System in the next data set: not listed separately
Kind of data set: Antioxidant activity assessed as ABTS radical scavenging activity measured after 15 mins by UV-Visible spectrophotometric based assay. Format: functional.
Conditions: not given
As to `CS(=O)(=O)[O-].O=C(CCc1ccc(O)c(O)c1)NCCCCCC[P+](c1ccccc1)(c1ccccc1)c1ccccc1`, the pIC50 is 4.55.

With `CS(=O)(=O)[O-].O=C(Cc1ccc(O)c(O)c1)NCCCCCC[P+](c1ccccc1)(c1ccccc1)c1ccccc1`, the pIC50 was 4.57.

System in another data set: not listed separately
Kind of data set: Cytotoxicity against human CMEC/D3 cells assessed as reduction in cell viability at 50 to 100 uM incubated for 4 hrs by MTT assay relative to control. The class given is cell-based. The note with it: hcmec/d3, 4 h.
With `CS(=O)(=O)[O-].O=C(CCc1ccc(O)c(O)c1)NCCCCCC[P+](c1ccccc1)(c1ccccc1)c1ccccc1`, the Activity entry is listed as “Non-Toxic”.

As for `CS(=O)(=O)[O-].O=C(Cc1ccc(O)c(O)c1)NCCCCCC[P+](c1ccccc1)(c1ccccc1)c1ccccc1`, the Activity entry is recorded as “Non-Toxic”.

System in the next data set: not listed separately
Kind of data set: Cytotoxicity against human SH-SY5Y cells assessed as cell metabolic activity at 50 uM incubated for 24 hrs by MTT assay relative to control. The class given is ADME, cell-based. The settings on record: read-out: Activity. Background: Tetrazolium dyes change colour on reduction, which living cells bring about.
With `CS(=O)(=O)[O-].O=C(CCc1ccc(O)c(O)c1)NCCCCCC[P+](c1ccccc1)(c1ccccc1)c1ccccc1`, the viability at 24 h, 50 µM was determined as 97.5%.

Turning to `CS(=O)(=O)[O-].O=C(Cc1ccc(O)c(O)c1)NCCCCCC[P+](c1ccccc1)(c1ccccc1)c1ccccc1`, the viability at 24 h, 50 µM amounted to 96.9%.

The next data set deals with SH-SY5Y. As to the kind of experiment: Neuroprotective activity against TBHP-induced oxidative damage in human SH-SY5Y cells assessed as increase in cell viability at 10 uM pretreated for 24 hrs followed by TBHP stimulation measured after 4 hrs by MTT assay relative to control. The class given is functional, cell-based.
Conditions: not given
Take `CS(=O)(=O)[O-].O=C(CCc1ccc(O)c(O)c1)NCCCCCC[P+](c1ccccc1)(c1ccccc1)c1ccccc1`: the outcome was inactive.

Regarding `CS(=O)(=O)[O-].O=C(Cc1ccc(O)c(O)c1)NCCCCCC[P+](c1ccccc1)(c1ccccc1)c1ccccc1`, the result was inactive.

System in another data set: not listed separately
Kind of data set: Antioxidant activity assessed as DPPH radical scavenging activity measured after 45 mins by UV-Visible spectrophotometric based assay.
Conditions: not given
The class given is functional. A general note: The DPPH test is a chemical assay of radical scavenging.
Consider `CS(=O)(=O)[O-].O=C(CCc1ccc(O)c(O)c1)NCCCCCC[P+](c1ccccc1)(c1ccccc1)c1ccccc1`, for which the pIC50 was 4.25.

In the case of `CS(=O)(=O)[O-].O=C(Cc1ccc(O)c(O)c1)NCCCCCC[P+](c1ccccc1)(c1ccccc1)c1ccccc1`, the pIC50 is 4.26.

System in another data set: not listed separately
Kind of data set: Cytotoxicity against human HepG2 cells assessed as cell metabolic activity at 50 uM incubated for 48 hrs by resazurin assay relative to control. The class given is ADME, cell-based. The settings on record: read-out: Activity.
Regarding `CS(=O)(=O)[O-].O=C(CCc1ccc(O)c(O)c1)NCCCCCC[P+](c1ccccc1)(c1ccccc1)c1ccccc1`, the viability at 48 h, 50 µM worked out at 99.3%.

Take `CS(=O)(=O)[O-].O=C(Cc1ccc(O)c(O)c1)NCCCCCC[P+](c1ccccc1)(c1ccccc1)c1ccccc1`: the viability at 48 h, 50 µM was 100%.

System in the next data set: not listed separately
As to the kind of experiment: Electrochemical behavior of the compound assessed as redox potential corrected toward saturated Ag/AgCl reference electrode by differential pulse voltammetry.
Conditions: not given
Consider `CS(=O)(=O)[O-].O=C(CCc1ccc(O)c(O)c1)NCCCCCC[P+](c1ccccc1)(c1ccccc1)c1ccccc1`, for which the Activity is 132 mV.

In the case of `CS(=O)(=O)[O-].O=C(Cc1ccc(O)c(O)c1)NCCCCCC[P+](c1ccccc1)(c1ccccc1)c1ccccc1`, the Activity stood at 141 mV.

In a further data set the test system is SH-SY5Y. As to the kind of experiment: Neuroprotective activity against 6-OHDA-induced toxicity in human SH-SY5Y cells assessed as reduction in cell damage at 10 to 50 uM pretreated for 24 hrs followed by 6-OHDA challenge and measured after 24 hrs by MTT assay relative to control. Format: functional.
Conditions: not given
For the compound `CS(=O)(=O)[O-].O=C(CCc1ccc(O)c(O)c1)NCCCCCC[P+](c1ccccc1)(c1ccccc1)c1ccccc1`, the result was Active.

As for `CS(=O)(=O)[O-].O=C(Cc1ccc(O)c(O)c1)NCCCCCC[P+](c1ccccc1)(c1ccccc1)c1ccccc1`, the result was Active.

System in a further data set: not listed separately
Kind of data set: Cytotoxicity against human HepG2 cells assessed as cell metabolic activity at 10 uM incubated for 48 hrs by resazurin assay relative to control. The class given is ADME, cell-based. The note with it: read-out: Activity.
`CS(=O)(=O)[O-].O=C(CCc1ccc(O)c(O)c1)NCCCCCC[P+](c1ccccc1)(c1ccccc1)c1ccccc1`: the viability at 48 h, 10 µM worked out at 104%.

In the case of `CS(=O)(=O)[O-].O=C(Cc1ccc(O)c(O)c1)NCCCCCC[P+](c1ccccc1)(c1ccccc1)c1ccccc1`, the viability at 48 h, 10 µM is 103%.

A further data set deals with SH-SY5Y. As to the kind of experiment: Neuroprotective activity against TBHP-induced oxidative damage in human SH-SY5Y cells assessed as increase in cell viability at 50 uM pretreated for 24 hrs followed by TBHP stimulation measured after 4 hrs by MTT assay relative to control. Format: functional.
Conditions: not given
With `CS(=O)(=O)[O-].O=C(CCc1ccc(O)c(O)c1)NCCCCCC[P+](c1ccccc1)(c1ccccc1)c1ccccc1`, the outcome was inactive.

For the compound `CS(=O)(=O)[O-].O=C(Cc1ccc(O)c(O)c1)NCCCCCC[P+](c1ccccc1)(c1ccccc1)c1ccccc1`, the Activity was 22.3%.

System in another data set: not listed separately
Kind of data set: Apparent permeability across apical to basolateral side in human CMEC/D3 cells at 100 uM incubated by UV-VIS spectroscopic method. Format: ADME, cell-based. The note with it: hcmec/d3, 100 µM, TDE = time-dependent effect.
Regarding `CS(=O)(=O)[O-].O=C(CCc1ccc(O)c(O)c1)NCCCCCC[P+](c1ccccc1)(c1ccccc1)c1ccccc1`, the permeability result is on record as “Tde”.

For `CS(=O)(=O)[O-].O=C(Cc1ccc(O)c(O)c1)NCCCCCC[P+](c1ccccc1)(c1ccccc1)c1ccccc1`, the permeability entry is reported as “Tde”.

System in another data set: not listed separately
Kind of data set: Cytotoxicity against human SH-SY5Y cells assessed as cell metabolic activity at 10 uM incubated for 24 hrs by MTT assay relative to control. The class given is ADME, cell-based. The settings on record: read-out: Activity.
Regarding `CS(=O)(=O)[O-].O=C(CCc1ccc(O)c(O)c1)NCCCCCC[P+](c1ccccc1)(c1ccccc1)c1ccccc1`, the viability at 24 h, 10 µM came out at 93.5%.

Consider `CS(=O)(=O)[O-].O=C(Cc1ccc(O)c(O)c1)NCCCCCC[P+](c1ccccc1)(c1ccccc1)c1ccccc1`, for which the viability at 24 h, 10 µM is 95.3%.

System in another data set: not listed separately
Kind of data set: Metal chelating activity assessed as compound-Fe2+ complex formation at 100 uM incubated for 10 mins by ferrozine spectrophotometric assay.
Conditions: not given
On to `CS(=O)(=O)[O-].O=C(CCc1ccc(O)c(O)c1)NCCCCCC[P+](c1ccccc1)(c1ccccc1)c1ccccc1`, for which the Activity was > 80%.

With `CS(=O)(=O)[O-].O=C(Cc1ccc(O)c(O)c1)NCCCCCC[P+](c1ccccc1)(c1ccccc1)c1ccccc1`, the Activity was > 80%.

System in another data set: not listed separately
As to the kind of experiment: Apparent permeability across apical to basolateral side in human CMEC/D3 cells at 100 uM incubated up to 180 mins by UV-VIS spectroscopic method. The class given is ADME, cell-based. The settings on record: hcmec/d3, 3 h.
With `CS(=O)(=O)[O-].O=C(CCc1ccc(O)c(O)c1)NCCCCCC[P+](c1ccccc1)(c1ccccc1)c1ccccc1`, the permeability is on record as 24.6%.

For `CS(=O)(=O)[O-].O=C(Cc1ccc(O)c(O)c1)NCCCCCC[P+](c1ccccc1)(c1ccccc1)c1ccccc1`, the permeability is given as 71.9%.

The next data set deals with SH-SY5Y. As to the kind of experiment: Induction of ROS generation in human SH-SY5Y cells at 50 uM incubated for 24 hrs by DCFH-DA probe based fluorescence assay relative to control. Format: functional.
Conditions: not given
The compound `CS(=O)(=O)[O-].O=C(CCc1ccc(O)c(O)c1)NCCCCCC[P+](c1ccccc1)(c1ccccc1)c1ccccc1` had an Activity of 83.1%.

`CS(=O)(=O)[O-].O=C(Cc1ccc(O)c(O)c1)NCCCCCC[P+](c1ccccc1)(c1ccccc1)c1ccccc1` returned an Activity of 81.3%.

System in a further data set: not listed separately
As to the kind of experiment: Electrochemical behavior of the compound assessed as redox potential corrected toward saturated Ag/AgCl reference electrode by cyclic voltammetry.
Conditions: not given
On to `CS(=O)(=O)[O-].O=C(CCc1ccc(O)c(O)c1)NCCCCCC[P+](c1ccccc1)(c1ccccc1)c1ccccc1`, for which the Activity stood at 132 mV.

Regarding `CS(=O)(=O)[O-].O=C(Cc1ccc(O)c(O)c1)NCCCCCC[P+](c1ccccc1)(c1ccccc1)c1ccccc1`, the Activity was determined as 141 mV.
